Laboratory results as given in US20260344665A1, “FUNGICIDAL COMPOUND” (priority 2022, published 2026).
Read-outs that look alike come from different tables or passages of the source.

Legend:
[1] = tested on: Magnaporthe grisea; format: in vivo, Magnaporthe grisea (Pyricularia oryzae); settings: rice, preventive
[2] = tested on: Puccinia recondita f. sp. tritici; assay: Leaf painting assay in wheat seedling, Puccinia recondita preventive; format: in vivo
Procedure: (§1) Wheat seedlings of the variety Riband (for Zymoseptoria tritici trials) or variety Arina (for Puccinia recondite trials) were grown in the glasshouse until 14d after seeding. At this time, such seedlings usually have a first leaf fully emerged (designated L1), a second leaf fully emerged (L2) and a third leaf (L3) that is partially emerged and in the process of development. Using a permanent pen, two dots were applied on the second leaf such as to generate three segments of roughly equal size: Segment A (at the base), segment B (middle part) and segment C (tip of the leaf). A stock solution of the compound of Formula (I) was produced in water and of benzovindiflupyr in DMSO at a concentration of 10,000 ppm. […] The diluted compound was applied to the middle segment of L2 using a conventional cotton stick; the cotton stick was soaked in the diluted compound and rubbed several times on the adaxial leaf surface between the two marks. One day later, the complete plant was inoculated with a fungal spore suspension using a paint brush. The spore suspension was applied until before run-off.
For infection with Puccinia recondita (preventive): The test plants were inoculated by spraying them with a spore suspension one day after application (spore suspension at 80,000 spores per ml in water supplemented with Tween20 at 0.1%). After an incubation period of 1 day at 20 °C and 95% rh, the inoculated test plants were kept at 20 °C and 60% rh in a greenhouse.
(§2) The three segments of the leaf were evaluated individually.

[3] = tested on: Zymoseptoria tritici; assay: Leaf painting assay in wheat seedling, Zymoseptoria tritici preventive; format: in vivo
Procedure: as §1
For infection with Zymoseptoria tritici (preventive), the test plants were inoculated by spraying a spore suspension on them one day after application (1.5 Mio spores per ml in water supplemented with 0.01% Tween20). After an incubation period of 4 days at 22 °C/21 °C (day/night) and 95% rh, the inoculated test plants were kept at 22 °C/21 °C (day/night) and 70% rh in a greenhouse.
as §2

[4] = tested on: Blumeria graminis f.sp. tritici; assay: Powdery mildew assay in wheat (haustoria formation); format: in vivo
[5] = tested on: several fungal species; assay: Leaf disc or leaf segment tests, summary over several fungal species; format: in vivo; settings: foliar; leaf disc and leaf segment tests; read-out: concentration from which fungal growth is reduced
Procedure: Leaf disks or leaf segments of various plant species were cut from plants grown in the greenhouse. The cut leaf discs or segments were placed in multiwell plates (24-well format) onto water agar. The leaf disks were sprayed with a test solution before (preventative) or after (curative) inoculation. Compounds to be tested were prepared as water solutions (max. 10 mg/ml) which were diluted to the appropriate concentration with 0.025% Tween20 just before spraying. The inoculated leaf discs or segments were incubated under defined conditions (temperature, relative humidity, light, etc.) according to the respective test system. A single evaluation of disease level was carried out 3-9 days days after inoculation, depending on the pathosystem. Percent disease control relative to the untreated check leaf discs or segments was then calculated.
Wheat leaf segments cv. Kanzler were placed on agar in multiwell plates (24-well format) and sprayed with the formulated test compound diluted in water. […] The inoculated leaf segments were incubated at 19 °C and 75% rh under a light regime of 12 h light/12 h darkness in a climate cabinet and the activity of a compound was assessed as percent disease control compared to untreated leaf when an appropriate level of disease damage appeared in untreated check leaf segments (7-9 days after application). […]

[6] = Experiment 1, 200.00 ppm, base segment, preventive
[7] = Experiment 1, 200.00 ppm, middle segment (treated), preventive
[8] = Experiment 1, 200.00 ppm, tip segment, preventive
[9] = Experiment 3, 400.00 ppm, base segment, preventive
[10] = Experiment 3, 400.00 ppm, middle segment (treated), preventive
[11] = Experiment 3, 400.00 ppm, tip segment, preventive

CC(=O)NC1C(OCC(OC2OC(CO)C(O)C(O)C2O)C2OC(OC3C(O)C(CO)OC(OC4(CO)OC(C(O)CO)C(O)C4OC4OC(CO)C(O)C(O)C4O)C3O)C(O)C(O)C2OC2OC(C(O)CO)C(O)C(O)C2OC2OCC(OC(N)=O)C(O)C2O)OC(CO)C(O)C1O (stereo not shown) [compound of Formula (I)]
% reduction fungal growth ([1]; 0.80 ppm): 0%
% reduction fungal growth ([1]; 2.50 ppm): 0%
% reduction fungal growth ([1]; 7.40 ppm): 0%
% reduction fungal growth ([1]; 22.00 ppm): 60%
% reduction fungal growth ([1]; 67.00 ppm): 70%
% reduction fungal growth ([1]; 200.00 ppm): 100%
% reduction fungal growth [2, 6]: 0%
% reduction fungal growth [2, 7]: 48%
% reduction fungal growth [2, 8]: 31%
% reduction fungal growth ([2]; Experiment 2, 200.00 ppm, base segment, preventive): 10%
% reduction fungal growth ([2]; Experiment 2, 200.00 ppm, middle segment (treated), preventive): 79%
% reduction fungal growth ([2]; Experiment 2, 200.00 ppm, tip segment, preventive): 38%
% reduction fungal growth [2, 9]: 16%
% reduction fungal growth [2, 10]: 98%
% reduction fungal growth [2, 11]: 99%
% reduction fungal growth ([2]; Experiment 4, 500.00 ppm, base segment, preventive): 0%
% reduction fungal growth ([2]; Experiment 4, 500.00 ppm, middle segment (treated), preventive): 69%
% reduction fungal growth ([2]; Experiment 4, 500.00 ppm, tip segment, preventive): 82%
activity against growth of fungus ([2]; leaf painting, preventive): active against growth
control on treated and above treated area ([2]; middle segment treated): provided control on the treated area (middle segment) as well as the above treated area (tip)
% reduction fungal growth [3, 6]: 24%
% reduction fungal growth [3, 7]: 93%
% reduction fungal growth [3, 8]: 99%
% reduction fungal growth [3, 9]: 1%
% reduction fungal growth [3, 10]: 96%
% reduction fungal growth [3, 11]: 100%
activity against growth of fungus ([3]; leaf painting, preventive): active against growth
control on treated and above treated area ([3]; middle segment treated): provided control on the treated area (middle segment) as well as the above treated area (tip)
minimal effective concentration ([4]; Blumeria graminis, 48 h, pre-treated wheat, read-out: concentration at which effect on haustoria formation is observed): ≥ 25 µM
activity at 1 µM ([4]; Blumeria graminis, 1 μM, 48 h after infecting, read-out: haustoria formation (% relative to control)): 106%
activity at 25 µM ([4]; Blumeria graminis, 25 μM, 48 h after infecting, read-out: haustoria formation (% relative to control)): 59.1%
activity at 100 µM ([4]; Blumeria graminis, 100 μM, 48 h after infecting, read-out: haustoria formation (% relative to control)): 66.4%
reduction of haustoria formation ([4]; pre-treated wheat): reduction of haustoria formation
minimal effective concentration [5]: ≥ 22 µg/mL
